Test results from US20020137929A1, “1 - (3-heterocyclylphenyl) isothiourea, -isourea, -guanidine and -amidine herbicidal agents” (Intellectual Property Department, BASF Aktiengesellschaft, priority 1998, published 2002).

Columns and labels:
[1] = system: IPOHE (Morningglory, Ivyleaf); test: Postemergence herbicidal evaluation; format: in vivo, Ipomoea hederacea; settings: postemergence
How it was run: (§1)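 Scores (0–9) reflect plant stand, vigor, malformation, size, chlorosis and general appearance relative to control, read 4 to 5 weeks after treatment and averaged where tests were repeated. Application: about 0.0156–0.500 kg/ha sprayed at 40 psi onto two-week seedlings.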

CASOB (Sicklepod) [2] = test: Postemergence herbicidal evaluation; format: in vivo, Cassia obtusifolia; settings: postemergence
How it was run: as §1

[3] = system: GLXMAW (Soybean, Williams); test: Preemergence herbicidal evaluation; format: in vivo, Glycine max, (L.) Merr. cv Williams; settings: rated 4-5 weeks after treatment
How it was run: (§2)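 Rating at 4–5 wk post-spray on a 0–9 visual scale vs control. Application: aqueous acetone, ~0.0156–0.500 kg/ha, to soil surface after seeding, preemergence.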

ZEAMX (Corn, Field) = test: Preemergence herbicidal evaluation; format: in vivo, Zea mays; settings: rated 4-5 weeks after treatment
How it was run: as §2

ABUTH (Velvetleaf) = test: Preemergence herbicidal evaluation; format: in vivo, Abutilon theophrasti; settings: rated 4-5 weeks after treatment
How it was run: as §2

[4] = system: IPOHE (Morningglory, Ivyleaf); test: Preemergence herbicidal evaluation; format: in vivo, Ipomoea hederacea; settings: rated 4-5 weeks after treatment
How it was run: as §2

CASOB (Sicklepod) [5] = test: Preemergence herbicidal evaluation; format: in vivo, Cassia obtusifolia; settings: rated 4-5 weeks after treatment
How it was run: as §2

[6] = system: SAGPY (Arrowhead (Pygmaea)); test: Preemergence weed control under flooded paddy conditions; format: in vivo, Sagittaria pygmaea; settings: rated 3-4 weeks after treatment
How it was run: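 Seeds or propagules sown in top 0.5 cm of silt loam soil, flooded 1.5 to 3 cm above surface throughout. Compound in 50/50 v/v aqueous/acetone pipetted into flood water at about 0.0313 to 0.500 kg/ha. Visual 0-9 rating versus control after three to four weeks in greenhouse.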

GALAP (Galium) = test: Postemergence herbicidal evaluation; format: in vivo, Galium aparine; settings: postemergence
How it was run: as §1

ECHCG (Barnyardgrass) = test: Preemergence herbicidal evaluation; format: in vivo, Echinochloa crus-galli; settings: rated 4-5 weeks after treatment
How it was run: as §2

[7] = system: TRZAWR (Wheat, Winter, cv Riband); test: Preemergence herbicidal evaluation; format: in vivo, Triticum aestivum; settings: rated 4-5 weeks after treatment
How it was run: as §2

CYPIR (Rice Flatsedge) = test: Postemergence weed control under flooded paddy conditions; format: in vivo, Cyperus iria; settings: postemergence weeds, rated 3 to 4 weeks after treatment
How it was run: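 Containers holding 3–5 cm weeds and rice at 1.5–2.5 leaves are flooded to 1.5–3 cm above soil. Compound in 50/50 v/v aqueous/acetone is then added directly to the water, about 0.0313–0.500 kg/ha. Plants are kept in the greenhouse and rated 0–9 visually at 3–4 weeks.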

AMBEL (Ragweed, Common) = test: Postemergence herbicidal evaluation; format: in vivo, Ambrosia artemisifolia; settings: postemergence
How it was run: as §1

## COC(=O)[C@@H](Cc1ccccc1)N1C(=O)CSC1=Nc1cc(-n2c(=O)cc(C(F)(F)F)n(C)c2=O)c(F)cc1Cl [Compound 74, Methyl α-benzyl-2-{{2-chloro-5-[3,6-dihydro-3-methyl-2,6-dioxo-4-(trifluoromethyl)-1(2H)-pyrimidinyl]-4-fluorophenyl}imino}-4-oxo-3-thiazolidineacetate, D-]
[1]; rate 0.0158 kg/ha
  IPOHE herbicidal rating: 9.0
[1]; rate 0.0315 kg/ha
  IPOHE herbicidal rating: 9.0
[1]; rate 0.0630 kg/ha
  IPOHE herbicidal rating: 9.0
CASOB (Sicklepod) [2]; rate 0.0158 kg/ha
  CASOB herbicidal rating: 3.0
CASOB (Sicklepod) [2]; rate 0.0315 kg/ha
  CASOB herbicidal rating: 4.0
CASOB (Sicklepod) [2]; rate 0.0630 kg/ha
  CASOB herbicidal rating: 9.0
[3]; rate 0.0156 kg/ha
  Preemergence herbicidal rating GLXMAW: 0.0
[3]; rate 0.0313 kg/ha
  Preemergence herbicidal rating GLXMAW: 1.0
[3]; rate 0.0625 kg/ha
  Preemergence herbicidal rating GLXMAW: 0.0
[3]; rate 0.1250 kg/ha
  Preemergence herbicidal rating GLXMAW: 1.0
[3]; rate 0.2500 kg/ha
  Preemergence herbicidal rating GLXMAW: 1.0
ZEAMX (Corn, Field); rate 0.0156 kg/ha
  Preemergence herbicidal rating ZEAMX: 0.0
ZEAMX (Corn, Field); rate 0.0313 kg/ha
  Preemergence herbicidal rating ZEAMX: 0.0
ZEAMX (Corn, Field); rate 0.0625 kg/ha
  Preemergence herbicidal rating ZEAMX: 0.0
ZEAMX (Corn, Field); rate 0.1250 kg/ha
  Preemergence herbicidal rating ZEAMX: 1.0
ZEAMX (Corn, Field); rate 0.2500 kg/ha
  Preemergence herbicidal rating ZEAMX: 1.0
ABUTH (Velvetleaf); rate 0.0156 kg/ha
  Preemergence herbicidal rating ABUTH: 0.0
ABUTH (Velvetleaf); rate 0.0313 kg/ha
  Preemergence herbicidal rating ABUTH: 4.0
ABUTH (Velvetleaf); rate 0.0625 kg/ha
  Preemergence herbicidal rating ABUTH: 9.0
ABUTH (Velvetleaf); rate 0.1250 kg/ha
  Preemergence herbicidal rating ABUTH: 9.0
ABUTH (Velvetleaf); rate 0.2500 kg/ha
  Preemergence herbicidal rating ABUTH: 9.0
[4]; rate 0.0156 kg/ha
  Preemergence herbicidal rating IPOHE: 0.0
[4]; rate 0.0625 kg/ha
  Preemergence herbicidal rating IPOHE: 1.0
[4]; rate 0.1250 kg/ha
  Preemergence herbicidal rating IPOHE: 0.0
[4]; rate 0.2500 kg/ha
  Preemergence herbicidal rating IPOHE: 1.0
CASOB (Sicklepod) [5]; rate 0.0156 kg/ha
  Preemergence herbicidal rating CASOB: 0.0
CASOB (Sicklepod) [5]; rate 0.0313 kg/ha
  Preemergence herbicidal rating CASOB: 0.0
CASOB (Sicklepod) [5]; rate 0.0625 kg/ha
  Preemergence herbicidal rating CASOB: 0.0
CASOB (Sicklepod) [5]; rate 0.1250 kg/ha
  Preemergence herbicidal rating CASOB: 0.0
CASOB (Sicklepod) [5]; rate 0.2500 kg/ha
  Preemergence herbicidal rating CASOB: 0.0
[6]; 0.0313 kg/ha
  SAGPY herbicidal effect rating: 3.0
[6]; 0.0625 kg/ha
  SAGPY herbicidal effect rating: 3.0
[6]; 0.1250 kg/ha
  SAGPY herbicidal effect rating: 3.0
[6]; 0.2500 kg/ha
  SAGPY herbicidal effect rating: 9.0
GALAP (Galium); rate 0.0158 kg/ha
  GALAP herbicidal rating: 1.0
GALAP (Galium); rate 0.0315 kg/ha
  GALAP herbicidal rating: 4.0
GALAP (Galium); rate 0.0630 kg/ha
  GALAP herbicidal rating: 9.0
ECHCG (Barnyardgrass); rate 0.0156 kg/ha
  Preemergence herbicidal rating ECHCG: 0.0
ECHCG (Barnyardgrass); rate 0.0313 kg/ha
  Preemergence herbicidal rating ECHCG: 0.0
ECHCG (Barnyardgrass); rate 0.0625 kg/ha
  Preemergence herbicidal rating ECHCG: 1.0
ECHCG (Barnyardgrass); rate 0.1250 kg/ha
  Preemergence herbicidal rating ECHCG: 0.0
ECHCG (Barnyardgrass); rate 0.2500 kg/ha
  Preemergence herbicidal rating ECHCG: 1.0
[7]; rate 0.0156 kg/ha
  Preemergence herbicidal rating TRZAWR: 0.0
[7]; rate 0.0313 kg/ha
  Preemergence herbicidal rating TRZAWR: 0.0
[7]; rate 0.0625 kg/ha
  Preemergence herbicidal rating TRZAWR: 1.0
[7]; rate 0.1250 kg/ha
  Preemergence herbicidal rating TRZAWR: 1.0
[7]; rate 0.2500 kg/ha
  Preemergence herbicidal rating TRZAWR: 1.0
CYPIR (Rice Flatsedge); Rate 0.0313 kg/ha
  Herbicidal rating CYPIR: 0.0
CYPIR (Rice Flatsedge); Rate 0.0625 kg/ha
  Herbicidal rating CYPIR: 0.0
CYPIR (Rice Flatsedge); Rate 0.1250 kg/ha
  Herbicidal rating CYPIR: 0.0
CYPIR (Rice Flatsedge); Rate 0.2500 kg/ha
  Herbicidal rating CYPIR: 0.0
AMBEL (Ragweed, Common); rate 0.0158 kg/ha
  AMBEL herbicidal rating: 9.0
AMBEL (Ragweed, Common); rate 0.0315 kg/ha
  AMBEL herbicidal rating: 9.0
AMBEL (Ragweed, Common); rate 0.0630 kg/ha
  AMBEL herbicidal rating: 9.0

## C[C@H](C(=O)O)N1C(=O)CSC1=Nc1cc(-n2c(=O)cc(C(F)(F)F)n(C)c2=O)c(F)cc1Cl [Compound 70, 2-{{2-Chloro-5-[3,6-dihydro-3-methyl-2,6-dioxo-4-(trifluoromethyl)-1(2H)-pyrimidinyl]-4-fluoro-phenyl}imino}-α-methyl-4-oxo-3-thiazolidineacetic acid, D-]
[1]; rate 0.0158 kg/ha
  IPOHE herbicidal rating: 9.0
[1]; rate 0.0315 kg/ha
  IPOHE herbicidal rating: 9.0
[1]; rate 0.0630 kg/ha
  IPOHE herbicidal rating: 9.0
CASOB (Sicklepod) [2]; rate 0.0158 kg/ha
  CASOB herbicidal rating: 0.0
CASOB (Sicklepod) [2]; rate 0.0315 kg/ha
  CASOB herbicidal rating: 0.0
CASOB (Sicklepod) [2]; rate 0.0630 kg/ha
  CASOB herbicidal rating: 3.0
[3]; rate 0.0156 kg/ha
  Preemergence herbicidal rating GLXMAW: 0.0
[3]; rate 0.0313 kg/ha
  Preemergence herbicidal rating GLXMAW: 0.0
[3]; rate 0.0625 kg/ha
  Preemergence herbicidal rating GLXMAW: 0.0
[3]; rate 0.1250 kg/ha
  Preemergence herbicidal rating GLXMAW: 0.0
[3]; rate 0.2500 kg/ha
  Preemergence herbicidal rating GLXMAW: 2.0
ZEAMX (Corn, Field); rate 0.0156 kg/ha
  Preemergence herbicidal rating ZEAMX: 0.0
ZEAMX (Corn, Field); rate 0.0313 kg/ha
  Preemergence herbicidal rating ZEAMX: 0.0
ZEAMX (Corn, Field); rate 0.0625 kg/ha
  Preemergence herbicidal rating ZEAMX: 0.0
ZEAMX (Corn, Field); rate 0.1250 kg/ha
  Preemergence herbicidal rating ZEAMX: 1.0
ZEAMX (Corn, Field); rate 0.2500 kg/ha
  Preemergence herbicidal rating ZEAMX: 3.0
ABUTH (Velvetleaf); rate 0.0156 kg/ha
  Preemergence herbicidal rating ABUTH: 0.0
ABUTH (Velvetleaf); rate 0.0313 kg/ha
  Preemergence herbicidal rating ABUTH: 0.0
ABUTH (Velvetleaf); rate 0.1250 kg/ha
  Preemergence herbicidal rating ABUTH: 6.0
ABUTH (Velvetleaf); rate 0.2500 kg/ha
  Preemergence herbicidal rating ABUTH: 9.0
[4]; rate 0.0156 kg/ha
  Preemergence herbicidal rating IPOHE: 0.0
[4]; rate 0.0313 kg/ha
  Preemergence herbicidal rating IPOHE: 0.0
[4]; rate 0.0625 kg/ha
  Preemergence herbicidal rating IPOHE: 0.0
[4]; rate 0.1250 kg/ha
  Preemergence herbicidal rating IPOHE: 1.0
[4]; rate 0.2500 kg/ha
  Preemergence herbicidal rating IPOHE: 5.0
CASOB (Sicklepod) [5]; rate 0.0156 kg/ha
  Preemergence herbicidal rating CASOB: 0.0
CASOB (Sicklepod) [5]; rate 0.0313 kg/ha
  Preemergence herbicidal rating CASOB: 0.0
CASOB (Sicklepod) [5]; rate 0.0625 kg/ha
  Preemergence herbicidal rating CASOB: 0.0
CASOB (Sicklepod) [5]; rate 0.1250 kg/ha
  Preemergence herbicidal rating CASOB: 1.0
CASOB (Sicklepod) [5]; rate 0.2500 kg/ha
  Preemergence herbicidal rating CASOB: 0.0
[6]; 0.0313 kg/ha
  SAGPY herbicidal effect rating: 4.0
[6]; 0.0625 kg/ha
  SAGPY herbicidal effect rating: 4.0
[6]; 0.1250 kg/ha
  SAGPY herbicidal effect rating: 4.0
[6]; 0.2500 kg/ha
  SAGPY herbicidal effect rating: 4.0
GALAP (Galium); rate 0.0158 kg/ha
  GALAP herbicidal rating: 0.0
GALAP (Galium); rate 0.0315 kg/ha
  GALAP herbicidal rating: 0.0
GALAP (Galium); rate 0.0630 kg/ha
  GALAP herbicidal rating: 3.0
ECHCG (Barnyardgrass); rate 0.0156 kg/ha
  Preemergence herbicidal rating ECHCG: 0.0
ECHCG (Barnyardgrass); rate 0.0313 kg/ha
  Preemergence herbicidal rating ECHCG: 0.0
ECHCG (Barnyardgrass); rate 0.0625 kg/ha
  Preemergence herbicidal rating ECHCG: 0.0
ECHCG (Barnyardgrass); rate 0.1250 kg/ha
  Preemergence herbicidal rating ECHCG: 1.0
ECHCG (Barnyardgrass); rate 0.2500 kg/ha
  Preemergence herbicidal rating ECHCG: 1.0
[7]; rate 0.0156 kg/ha
  Preemergence herbicidal rating TRZAWR: 0.0
[7]; rate 0.0313 kg/ha
  Preemergence herbicidal rating TRZAWR: 0.0
[7]; rate 0.0625 kg/ha
  Preemergence herbicidal rating TRZAWR: 0.0
[7]; rate 0.1250 kg/ha
  Preemergence herbicidal rating TRZAWR: 1.0
[7]; rate 0.2500 kg/ha
  Preemergence herbicidal rating TRZAWR: 5.0
CYPIR (Rice Flatsedge); Rate 0.0313 kg/ha
  Herbicidal rating CYPIR: 0.0
CYPIR (Rice Flatsedge); Rate 0.0625 kg/ha
  Herbicidal rating CYPIR: 2.0
CYPIR (Rice Flatsedge); Rate 0.1250 kg/ha
  Herbicidal rating CYPIR: 2.0
CYPIR (Rice Flatsedge); Rate 0.2500 kg/ha
  Herbicidal rating CYPIR: 2.0
AMBEL (Ragweed, Common); rate 0.0158 kg/ha
  AMBEL herbicidal rating: 6.0
AMBEL (Ragweed, Common); rate 0.0315 kg/ha
  AMBEL herbicidal rating: 6.0
AMBEL (Ragweed, Common); rate 0.0630 kg/ha
  AMBEL herbicidal rating: 7.0
